# Assay results reported in patent US11291840B2, “Neuronal stimulation model, device and methods using alternate current” (priority 2017, dated 2022).
# Test system: dissociated rat cortical neurons
# Experiment: Axon 3D growth after local delivery of soluble factors in silk scaffold/collagen gel 3D brain tissue model (β III-tubulin staining, 3D neurite tracing)
# Assay type: cell-based
# Settings: for Axon length: 3D culture, mean±SEM; for axon abundance in center core of 3D cultures (β III-tubulin 2D projections): ECM components compared to neurotrophic factors, ranking among neurotrophic factors; for axons longer compared to BDNF / axons longer compared to the control: axon lengths at DIV 7, 4 days exposure; for axons longer compared to BDNF: vs BDNF; for axons longer compared to the control: vs control culture
# Excerpt: In one aspect of the present disclosure, control of axon growth and alignment in a CNS environment is critical for nervous system development and regenerative growth. The present disclosure explores the effects of exogenous stimulus of electrical signals and soluble factors on axon 3D growth, using a silk protein material-based 3D brain tissue model. A pair of gold wires were threaded into the 3D tissue model, positioned at the interface of the scaffold region and the center gel region, spanning the axon growth area. This setup delivered applied electrical field directly to growing axons, and the effects were compared to local delivery of soluble factors including extracellular (ECM) components and neurotrophic factors. In one embodiment, dissociated rat cortical neurons were exposed to an alternating field of 80 mV/mm at 0.5 Hz to 2 kHz or soluble factors for up to 4 days, starting on day 3 in vitro (DIV 3), and evaluated by of β III-tubulin immunostaining, confocal imaging and 3D neurite tracing. […] In one embodiment, though axon lengths under 2 Hz stimulation and LN or FN exposure were statistically similar, significant AC-induced axon orientation was found under all frequencies tested. In one embodiment, the effects include perpendicular orientation of axons trespassing an electrode and aligned axon tracts in parallel to the field direction. In one embodiment, the electrode in AC field acts as an alternating cathode that attracts the growing tip of the axon, and AC field between pair electrodes orient axon tract formation in parallel to the field direction. Provided in this disclosure is the use of alternating electric field stimulation to direct axon 3D length growth and orientation. In one aspect, the present disclosure provides stimulation parameters, in conjunction of delivery of growth promoting soluble factors in a brain mimetic 3D environment. In one aspect, the present disclosure teaches the fundamental effects of electrical fields on nervous system development and for testing neuromodulation approaches to promote neural regeneration.
# The 3D brain tissue is composed of silk protein material-based scaffold and infused extracellular matrix (ECM) gel, such as collagen type I gel used in this study, as described previously (Tang-Schomer, 2014, 2015). The center region of the donut-shaped scaffold is filled with ECM gel only, for axon outgrowth; whereas the cell bodies are confined to the scaffold region. […]
# Axon growth in the 3D brain tissue model was compared after local delivery of soluble factors, including extracellular matrix components such as laminin (LN) and fibronectin (FN) and brain-derived neurotrophic factor (BDNF), glial-derived neurotrophic factor (GDNF), neurotrophin-3 (NT3), and nerve growth factor (NGF) (FIGS. 13A-M). FIGS. 13A-J show representative 2D projections of β III-tubulin stained axons in the center core of 3D cultures.
# The rat brain tissue dissociation protocol was approved by Tufts University Institutional Animal Care and Use Committee and complies with the NIH Guide for the Care and Use of Laboratory Animals (IACUC #B2011-45). Cortices from embryonic day 18 (E18) Sprague Dawley rats (Charles River, Wilmington, Mass., USA) were isolated, dissociated with trypsin (0.3%, Sigma) and DNase (0.2%, Roche Applied Science, Indianapolis, Ind., USA) followed with trypsin inhibition with soybean proteins (1 mg/mL, Sigma), centrifuged, and plated at 200,000-625,000 cells/cm^2 in NeuroBasal media (Invitrogen, Carlsbad, Calif., USA) supplemented with B-27 neural supplement, penicillin/streptomycin (100 U/mL and 100 μg/mL), and GlutaMax (2 mM) (Invitrogen). Cultures were maintained in 37° C., 100% humidity and 5% CO2 in an incubator (Forma Scientific, Marietta, Ohio, USA) for up to 16 days in vitro (DIV 1-16). Cultures of DIV 14-16 were used for stimulation.
# Silk solution and porous scaffolds were prepared from Bombyx mori cocoons as described previously (Tang-Schomer et al., 2014). […]
# [1] = 48 hr exposure after local delivery of soluble factor
# [2] = 4 ds exposure of soluble factor (DIV 7), in µm
Molecule,Axon length [1],Axon length [2],axon abundance in center core of 3D cultures (β III-tubulin 2D projections),axons longer compared to BDNF,axons longer compared to the control,axon appearance after 48 hr exposure (48 hr exposure),axon appearance after 4 days (4 days after local delivery)
fibronectin [FN],1220.7±57.5 μm,1411.8±45.1,more abundant axons,~25%,~41%,,
laminin [LN],1237.7±51.3 μm,1332.5±71.0,more abundant axons,~18%,~33%,,
nerve growth factor [NGF],706.5±33.4 μm,1045.6±61.9,,,,,
"neurotrophin-3 (protein, UniProt P20783 139-257, looked up, neurotrophic factor delivered locally as soluble factor) Neurotrophin-3: YAEHKSHRGEYSVCDSESLWVTDKSSAIDIRGHQVTVLGEIKTGNSPVKQYFYETRCKEARPVKNGCRGIDDKHWNSQCKTSQTYVRALTSENNKLVGWRWIRIDTSCVCALSRKIGRT",728.2±42.5 μm,784.3±71.6,,,,robust growth,signs of axon degeneration
"glial-derived neurotrophic factor (protein, UniProt P39905 78-211, looked up, neurotrophic factor delivered locally as soluble factor) Glial cell line-derived …: SPDKQMAVLPRRERNRQAAAANPENSRGKGRRGQRGKNRGCVLTAIHLNVTDLGLGYETKEELIFRYCSGSCDAAETTYDKILKNLSRNRRLVSDKVGQACCRPIAFDDDLSFLDDNLVYHILRKHSAKRCGCI",802.5±38.0 μm,1068.3±43.9,,,,,
"brain-derived neurotrophic factor (protein, UniProt P23560 19-247, looked up, neurotrophic factor delivered locally as soluble factor) Neurotrophic factor BDNF …: APMKEANIRGQGGLAYPGVRTHGTLESVNGPKAGSRGLTSLADTFEHVIEELLDEDQKVRPNEENNKDADLYTSRVMLSSQVPLEPPLLFLLEEYKNYLDAANMSMRVRRHSDPARRGELSVCDSISEWVTAADKKTAVDMSGGTVTVLEKVPVSKGQLKQYFYETKCNPMGYTKEGCRGIDKRHWNSQCRTTQSYVRALTMDSKKRIGWRFIRIDTSCVCTLTIKRGR",946.8±35.2 μm,1131.1±52.0,most abundant axons,,~13%,,
